Laboratory results published in US20050153947A1, “Methods and reagents for the treatment of diseases and disorders associated with increased levels of proinflammatory cytokines” (priority 2002, published 2005).
Where two headings read alike, the source gives them in different places.

Key:
TNFα [1] = test: TNFα secretion by stimulated white blood cells, SSRI/corticosteroid combination matrices (Example 4, stimulus not given); type: cell-based; details: Homo sapiens, read-out: percent inhibition of TNFα secretion; for inhibition at 0.003 µM: prednisolone 0.003 μM; for inhibition at 0.006 µM: prednisolone 0.006 μM; for inhibition at 0.05 µM: prednisolone 0.050 μM; for inhibition at 0.1 µM: prednisolone 0.100 μM; for inhibition at 0.2 µM: prednisolone 0.200 μM
TNFα [2] = test: TNFα secretion by white blood cells/PBMC stimulated with phorbol 12-myristate 13-acetate and ionomycin (PI), ELISA; details: concentration (μM)
Method: (§1) Various concentrations of each test compound were added at the time of stimulation. […] After the plate was washed with 0.1% Tween 20/PBS, an HRP-luminescent substrate was added to each well and light intensity measured using a LJL Analyst plate luminometer.
(§2) Single agents were tested for the ability to suppress secretion of IFNγ, IL-1β, IL-2, and TNFα from stimulated white blood cells, and the percent inhibition of cytokine secretion, relative to untreated stimulated white blood cells, was determined.

IL-2 = IL-2 secretion by white blood cells/PBMC stimulated with phorbol 12-myristate 13-acetate and ionomycin (PI), ELISA; details: for percent inhibition of cytokine secretion, IL-2: concentration (μM)
Method: as §1, §2

TNFα [3] = test: TNFα secretion by white blood cells stimulated with lipopolysaccharide (LPS), ELISA; type: cell-based, human; details: concentration (μM)
Method: as §1, §2

IL-1β = IL-1β secretion by white blood cells stimulated with lipopolysaccharide, ELISA; type: cell-based, human
Method: as §1, §2

IL-4 = IL-4 secretion, buffy coat assay supernatant, Cytometric 6 Bead Array; details: Homo sapiens, read-out: IL-4 % Inhibition
Method: (§3) Analysis of IL-4 and IL-5 cytokine expression was performed using the BD PharMingen Cytometric 6 Bead Array system according to the manufacturer's instructions. Briefly, the supernatant from a buffy coat assay plate wa incubated with the labeled cytokine detection bead cocktail. The samples were then washed, resuspended and read on the BD Pharmingen FACsCalibur flow cytometer. Data was then analyzed using the BD Pharmingen CBA 6 Bead Analysis software.

IL-5 = IL-5 secretion, buffy coat assay supernatant, Cytometric 6 Bead Array; details: Homo sapiens, read-out: IL-5 % Inhibition
Method: as §3

[4] = citalopram alone, 20.00 to 0.01
[5] = fluoxetine alone, 29.00 to 0.01
[6] = Homo sapiens, PBMC, read-out: % Inhibition IL-2 PBMC PI
[7] = norfluoxetine alone, 45.00 to 0.02
[8] = paroxetine alone, 27.00 to 0.03
[9] = fluoxetine concentration (μM), 7.230 to 0.000
[10] = paroxetine concentration (μM), 6.000 to 0.000
[11] = R(+) fluoxetine alone, 58 to 0.028
[12] = S(+) fluoxetine alone, 58 to 0.028

CCCC1O[C@@H]2C[C@H]3[C@@H]4CCC5=CC(=O)C=C[C@]5(C)[C@H]4[C@@H](O)C[C@]3(C)[C@]2(C(=O)CO)O1 (stereo partly shown) [Budesonide, budesonide] gave an inhibition at 0.0005 µM (TNFα [1]; budesonide 0.0005 μM, fluoxetine concentration (μM), 0 to 0.580) of -2.4%, an inhibition at 0.002 µM (TNFα [1]; budesonide 0.002 μM, fluoxetine concentration (μM), 0 to 0.580) of -8.9% and an inhibition at 0.009 µM (TNFα [1]; budesonide 0.009 μM, fluoxetine concentration (μM), 0 to 0.580) of 5.3%.
For CN(C)CCCC1(c2ccc(F)cc2)OCc2cc(C#N)ccc21 (stereo not shown) [Citalopram], the “percent inhibition of cytokine secretion, TNFα (PI)” value (shortened to “percent inhibition … (PI)”) (TNFα [2]; [4]) was 0% and the “percent inhibition of cytokine secretion, IL-2” value (shortened to “percent inhibition … IL-2”) (IL-2; [4]) was 0%.
Molecule C[C@@H]1C[C@H]2[C@@H]3CCC4=CC(=O)C=C[C@]4(C)[C@@]3(F)[C@@H](O)C[C@]2(C)[C@@]1(O)C(=O)CO [Dexamethasone, dexamethasone] has an inhibition at 0.0004 µM (TNFα [1]; dexamethasone 0.0004 μM, paroxetine concentration (μM), 0 to 6.000) of 2.1%, an inhibition at 0.0006 µM (TNFα [1]; dexamethasone 0.0006 μM, fluoxetine concentration (μM), 0 to 0.580) of -3.8% and an inhibition at 0.0008 µM (TNFα [1]; dexamethasone 0.0008 μM, paroxetine concentration (μM), 0 to 6.000) of 6.7%.
In the case of CNCCC(Oc1ccc(C(F)(F)F)cc1)c1ccccc1 (stereo not shown) [Fluoxetine], the “percent inhibition of cytokine secretion, TNFα (LPS)” value (shortened to “percent inhibition … (LPS)”) (TNFα [3]; [5]) is reported as 0%, the “percent inhibition of cytokine secretion, IL-1β” value (“percent inhibition … IL-1β” below) (IL-1β; fluoxetine alone, concentration (μM), 29.00 to 0.01) is reported as 0% and the “percent inhibition … (PI)” value (TNFα [2]; [5]) is reported as 6%. It also gave an inhibition at 10 µM (IL-2; [6]) of 16.1%, an inhibition at 21 µM (IL-2; [6]) of 47.4% and an inhibition at 42 µM (IL-2; [6]) of 90.3%. For the same molecule, the inhibition at 84 µM (IL-2; [6]) was 103% and the “percent inhibition … IL-2” value (IL-2; [5]) was 0%.
In the case of COCCCC/C(=N\OCCN)c1ccc(C(F)(F)F)cc1 [Fluvoxamine], the “percent inhibition … (LPS)” value (TNFα [3]; fluvoxamine alone, 63 to 0.031) is reported as 0%, the “percent inhibition … IL-1β” value (IL-1β; fluvoxamine alone, concentration (μM), 63 to 0.031) is reported as 0% and the “percent inhibition … (PI)” value (TNFα [2]; fluvoxamine alone, 63 to 0.031) is reported as 0%. The inhibition at 5 µM (IL-2; [6]) was 3.6%, the inhibition at 10 µM (IL-2; [6]) was 8.1% and the inhibition at 20 µM (IL-2; [6]) was 22%.
With NCCC(Oc1ccc(C(F)(F)F)cc1)c1ccccc1 (stereo not shown) [Norfluoxetine, norfluoxetine] the “percent inhibition … (LPS)” value (TNFα [3]; [7]) was 0%, the “percent inhibition … IL-1β” value (IL-1β; norfluoxetine alone, concentration (μM), 45.00 to 0.02) was 0% and the “percent inhibition … (PI)” value (TNFα [2]; [7]) was 0%. The “percent inhibition … IL-2” value (IL-2; [7]) was 0%.
For Fc1ccc([C@@H]2CCNC[C@H]2COc2ccc3c(c2)OCO3)cc1 [Paroxetine], the “percent inhibition … (LPS)” value (TNFα [3]; [8]) was 0%, the “percent inhibition … IL-1β” value (IL-1β; paroxetine alone, concentration (μM) in c4 of the same row, 53.00 to 0.05) was 0% and the inhibition at 28 µM (IL-4) was 97.1%. For the same molecule, the inhibition at 28 µM (IL-5) was 97.8%, the “percent inhibition … (PI)” value (TNFα [2]; [8]) was 0% and the inhibition at 18 µM (IL-2; [6]) was 54.2%. For the same molecule, the inhibition at 36 µM (IL-2; [6]) was 83.5%, the inhibition at 72 µM (IL-2; [6]) was 95.7% and the “percent inhibition … IL-2” value (IL-2; [8]) was 0%.
C[C@]12C=CC(=O)C=C1CC[C@@H]1[C@@H]2[C@@H](O)C[C@@]2(C)[C@H]1CC[C@]2(O)C(=O)CO [Prednisolone, prednisolone] showed an inhibition at 0.5 µM (TNFα [1]; Prednisolone 0.500 μM alone) of 29.1%, an inhibition at 1 µM (TNFα [1]; Prednisolone 1.0000 μM alone) of 34% and an inhibition at 0.0008 µM (TNFα [1]; prednisolone 0.0008 μM, fluoxetine concentration (μM), 7.230 to 0.000) of 3.8%. For the same molecule, the inhibition at 0.003 µM (TNFα [1]; [9]) was 4.4%, the inhibition at 0.003 µM (TNFα [1]; [10]) was -0.1% and the inhibition at 0.006 µM (TNFα [1]; [9]) was 7%. It also gave an inhibition at 0.006 µM (TNFα [1]; [10]) of 4.6%, an inhibition at 0.05 µM (TNFα [1]; [9]) of 24.3% and an inhibition at 0.05 µM (TNFα [1]; [10]) of 23.4%. The inhibition at 0.1 µM (TNFα [1]; [9]) was 31.6%, the inhibition at 0.1 µM (TNFα [1]; [10]) was 29.4% and the inhibition at 0.2 µM (TNFα [1]; [9]) was 39.7%. For the same molecule, the inhibition at 0.2 µM (TNFα [1]; [10]) was 34.1%, the inhibition at 0.4 µM (TNFα [1]; prednisolone 0.400 μM, paroxetine concentration (μM), 6.000 to 0.000) was 36.2% and the inhibition at 0.5 µM (TNFα [1]; prednisolone 0.500 μM, fluoxetine concentration (μM), 0 to 29.00) was 39%. For the same molecule, the inhibition at 0.5 µM (TNFα [1]; prednisolone 0.500 μM, paroxetine concentration (μM), 0 to 27.00) was 35.4%, the inhibition at 1 µM (TNFα [1]; prednisolone 1.0000 μM, fluoxetine concentration (μM), 0 to 29.00) was 35.1% and the inhibition at 1 µM (TNFα [1]; prednisolone 1.0000 μM, paroxetine concentration (μM), 0 to 27.00) was 38.6%. The inhibition at 1 µM (IL-4) was 47.8% and the inhibition at 1 µM (IL-5) was 75.5%.
CNCC[C@@H](Oc1ccc(C(F)(F)F)cc1)c1ccccc1 [R(+) Fluoxetine] was tested, and the “percent inhibition … (LPS)” value (TNFα [3]; [11]) was 0%, the “percent inhibition … IL-1β” value (IL-1β; R(+) fluoxetine alone, concentration (μM), 58 to 0.028) was 0% and the “percent inhibition … (PI)” value (TNFα [2]; [11]) was 0%. The “percent inhibition … IL-2” value (IL-2; [11]) was 0%.
CNCC[C@H](Oc1ccc(C(F)(F)F)cc1)c1ccccc1 [S(+) Fluoxetine] was tested, and the “percent inhibition … (LPS)” value (TNFα [3]; [12]) was 0%, the “percent inhibition … IL-1β” value (IL-1β; S(+) fluoxetine alone, concentration (μM), 58 to 0.028) was 0% and the “percent inhibition … (PI)” value (TNFα [2]; [12]) was 0%. The “percent inhibition … IL-2” value (IL-2; [12]) was 0%.
In the case of COc1ccc(C(CN(C)C)C2(O)CCCCC2)cc1 (stereo not shown) [Venlafaxine], the “percent inhibition … (LPS)” value (TNFα [3]; venlafaxine alone, 39.83 to 0.02) is reported as 3.33%.
